In PubChem BioAssay (NCI) one finds TGI data, which are given here for six compounds.

Assay in all cases: inhibition of tumour cell growth, NCI panel, 48 h
For assay [1], the system named is A498 renal.
The test system of assay [2] is CAKI-1 renal.
Assay [3] has as its system HCT-116 colon.
In assay [4] the test system is HCT-15 colon.
The test system of assay [5] is HOP-62 NSCLC.
Assay [6] relates to HS 578T breast.
The test system of assay [7] is M14 melanoma.
The subject of assay [8] is MDA-N.
For assay [9], the system named is MOLT-4 leukemia.
In assay [10] the test system is NCI-H226 lung.
The subject of assay [11] is RXF 393 renal.
The subject of assay [12] is SF-539 CNS.
Assay [13] has as its system SK-MEL-2 melanoma.
Assay [14] relates to SK-MEL-28 melanoma.
Assay [15] deals with SK-MEL-5 melanoma.
The test system of assay [16] is SNB-75 CNS.
For assay [17], the system named is TK-10 renal.
Assay [18] concerns UACC-62 melanoma.
The test system of assay [19] is UO-31 renal.
Assay [20] has as its system BT-549 breast.

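Compound exposure: 48 hours, 5 concentrations, 96-well plates. TGI: concentration producing complete growth inhibition.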

As for `CCCCCCCCCCCCC/C=C/[C@@H](O)[C@H](COC1OC(CO)C(OC2OC(CO)C(O)C(OC3(C(=O)O)CC(O)C(NC(C)=O)C(C(O)C(O)CO)O3)C2O)C(O)C1O)N=[N+]=[N-]` (stereo partly specified), the TGI in [1] was more than 100 µM; in [2] it was more than 100 µM; in assay [3] it was more than 100 µM; in assay [4], more than 100 µM; in assay [5], 46.2 µM; in assay [6], more than 100 µM. For the same compound, the TGI was 34.3 µM in [7]; more than 100 µM in [8]; 43.4 µM in assay [9]; 45.9 µM in [10]; 48.8 µM in assay [11]; 31.9 µM in [12]. The TGI in [13] is 49.7 µM; in assay [14], 60.5 µM; in assay [15] it was 41.6 µM; in assay [16] it was 37.1 µM; in assay [17], more than 100 µM; in assay [18], 37.1 µM. Besides, the TGI in assay [19] was determined as 44.1 µM.
For `CC1C[C@]2(C)C(=NCCN)Nc3ccccc3[C@@H]2N(C)c2ccccc21` (stereo partly specified), the TGI in assay [1] was 30.5 µM; in [2], 31.3 µM; in assay [3], 21 µM; in assay [4] it was 34.5 µM; in assay [5], 30.6 µM; in assay [6] it was 38.2 µM. The TGI in assay [7] is 3.56 µM; in [8] it was 27.8 µM; in assay [9], more than 100 µM; in [10] it was 30.2 µM; in [11] it was 22.1 µM; in assay [12], 25.9 µM. The TGI was determined as 34.3 µM in [13]; 24.3 µM in assay [14]; 26.8 µM in assay [15]; 13.2 µM in assay [16]; 21.5 µM in [17]; 28.1 µM in assay [18]. This compound also displayed a TGI in assay [19] of 23.2 µM.
Consider `CC(C)CC(NC(=O)C(CI)Cc1ccccc1)C(=O)Nc1ccccc1` (stereo unspecified), for which the TGI is more than 100 µM in [1]; 57 µM in assay [20]; more than 100 µM in assay [2]; more than 100 µM in assay [3]; more than 100 µM in assay [4]; more than 100 µM in assay [7]. Besides, the TGI in [8], in assay [9], in [11], in assay [12], in assay [13] and in assay [14] was more than 100 µM each time. Also, the TGI in assay [15], in assay [16], in [17], in [18] and in [19] was more than 100 µM in each case.
For the compound `CNC(=S)N=Nc1c(O)n(CN2CCOCC2)c2ccc([N+](=O)[O-])cc12`, the TGI in assay [1] amounted to 66.8 µM; in assay [2], 64.1 µM; in assay [3], 28.7 µM; in assay [4], 26.6 µM; in assay [5] it was 28.2 µM; in [6], 73 µM. The TGI in assay [7] was more than 100 µM; in assay [8], more than 100 µM; in [9], more than 100 µM; in [10] it was 36.3 µM; in assay [11] it was 30 µM; in [12], 33.1 µM. Also, the TGI in assay [13] was 21.2 µM; in [14], 54.8 µM; in assay [15] it was more than 100 µM; in assay [17], 29.8 µM; in assay [18], 33.3 µM; in assay [19], 14.2 µM.
`O=C(O)C1C2C=CC(C2)C1c1ccccc1` (stereo unspecified): the TGI in [1], in [2], in assay [3], in [4], in [5] and in assay [6] was more than 100 µM in each case. The TGI in [7], in [8], in assay [9], in assay [10], in [11] and in assay [12] was more than 100 µM in each case. For the same compound, the TGI in [13], in assay [14], in assay [15], in [16], in assay [17] and in assay [18] was more than 100 µM throughout. In addition, the TGI in assay [19] is more than 100 µM.
On to `CC(C)(C)OC(=O)NC(Cc1ccc(OC(C)(C)C)cc1)C(=O)N[C@H]1CCC[C@H]1C(=O)NC(Cc1ccccc1)C(=O)N1CCCC1C(N)=O` (stereo partly specified), for which the TGI in assay [1], in assay [2], in assay [3], in assay [4], in [5] and in assay [6] was more than 100 µM each time. Besides, the TGI in assay [7], in assay [8], in assay [9], in assay [10], in [11] and in assay [12] was more than 100 µM in each case. For the same compound, the TGI in assay [13], in [14], in assay [15], in assay [16], in assay [17] and in [18] was more than 100 µM throughout. For the same compound, the TGI in assay [19] was more than 100 µM.
